Assay results published in patent publication US20180200257A1, “METHODS FOR THE TREATMENT OF INFLAMMATORY DISORDERS” (Galapagos NV, priority 2015, published 2018).

Test system: subjects with moderately to severely active RA who have an inadequate response to methotrexate (MTX)
Assay: Study 1 (add-on to MTX) - serum CRP values
Type: in vivo, human
Experimental: Double-blind, placebo-controlled add on study in subjects with moderately to severely active RA who have an inadequate response to methotrexate (MTX) (oral or parenteral).
595 subjects randomized to one of 6 dose regimens of Compound 1 (dosed as [Compound 1:HCl:3H2O]) (3 dose levels administered either once or twice daily) or placebo on top of each subject's stable dose of MTX.
Compound 1 (dosed as [Compound 1:HCl:3H2O]) is dosed for twelve weeks once daily (q.d.) (50 mg, 100 mg or 200 mg) or twice daily (b.i.d.) (25 mg, 50 mg or 100 mg); or placebo.
At Week 12, the subjects on placebo who have not achieved 20% improvement in swollen joint count (SJC66) and tender joint count (TJC68) are re-randomized automatically to receive Compound 1 (dosed as a [Compound 1:HCl:3H2O]) either at 100 mg q.d. or 50 mg b.i.d. doses in a blinded fashion; subjects on 50 mg q.d. who have not achieved 20% improvement in SJC66 and TJC68 will be assigned to 100 mg q.d. and subjects on 25 mg b.i.d. that have not achieved a 20% improvement in SJC66 and TJC68 will be assigned to 50 mg b.i.d. Subjects who switch treatment at week 12 are handled as if they discontinued at week 12 for the purpose of statistical analysis, whereas subjects in the other groups will maintain their randomized treatment until Week 24.
CRP determination is available at Quest Diagnostics, Clinical Trials, Quest House, 125-135 Staines Road, Hounslow, Middlesex, TW3 3JB, United Kingdom under Catalogue n#86140.
The determination of CRP is made using Immunoturbidimetric assay for the in vitro quantitative determination of CRP in human serum and plasma on Roche/Hitachi cobas c systems, wherein human CRP agglutinates with latex particles coated with monoclonal anti-CRP antibodies. The aggregates are determined turbidimetrically (Eda et al., 1998; Price et al., 1987).
Human serum and plasma samples CRP determination was done on a Roche/Hitachi Cobas c 301 c 501/502 system which automatically calculate the analyte concentration of each sample. Samples containing precipitates are centrifuged before performing the assay.
The machine parameters are listed in Table XCI and Table XCII below, and the results at 12 weeks v using either LOCF are shown in Table XCIII and below. The Hommel-corrected p-value for the pairwise comparisons of each group with placebo is shown.
The number of subjects (N) provided in each groups corresponds to the number of subjects starting the study in each group, and the CRP data reported below corresponds to the responding subjects continuing for the entire 24 weeks on their initial treatment course.

O=C(Nc1nc2cccc(-c3ccc(CN4CCS(=O)(=O)CC4)cc3)n2n1)C1CC1 [Compound 1, cyclopropanecarboxylic acid {5-[4-(1,1-dioxo-thiomorpholin-4-ylmethyl)-phenyl]-[1,2,4]triazolo[1,5-a]pyridin-2-yl}-amide]
CRP mean CFB mg/L (LOCF) (50 mg q.d., week 1, 12 weeks results): -7.95 mg/L
CRP mean CFB mg/L (LOCF) (50 mg q.d., week 1, 24 weeks results): -7.95 mg/L
CRP mean CFB mg/L (LOCF) (50 mg q.d., week 2, 12 weeks results): -8.23 mg/L
CRP mean CFB mg/L (LOCF) (50 mg q.d., week 2, 24 weeks results): -8.23 mg/L
CRP mean CFB mg/L (LOCF) (50 mg q.d., week 4, 12 weeks results): -10.18 mg/L
CRP mean CFB mg/L (LOCF) (50 mg q.d., week 4, 24 weeks results): -10.18 mg/L
CRP mean CFB mg/L (LOCF) (50 mg q.d., week 12, 12 weeks results): -13.15 mg/L
CRP mean CFB mg/L (LOCF) (50 mg q.d., week 12, 24 weeks results): -13.15 mg/L
CRP mean CFB mg/L (LOCF) (50 mg q.d., week 16, 24 weeks results): -13.55 mg/L
CRP mean CFB mg/L (LOCF) (50 mg q.d., week 20, 24 weeks results): -13.12 mg/L
CRP mean CFB mg/L (LOCF) (50 mg q.d., week 24, 24 weeks results): -15.22 mg/L
CRP mean CFB mg/L (LOCF) (50 mg q.d., week 8, 12 weeks results): -12.02 mg/L
CRP mean CFB mg/L (LOCF) (50 mg q.d., week 8, 24 weeks results): -12.02 mg/L
CRP mean CFB mg/L (LOCF) (100 mg q.d., week 1, 12 weeks results): -11.02 mg/L
CRP mean CFB mg/L (LOCF) (100 mg q.d., week 1, 24 weeks results): -11.02 mg/L
CRP mean CFB mg/L (LOCF) (100 mg q.d., week 2, 12 weeks results): -12.94 mg/L
CRP mean CFB mg/L (LOCF) (100 mg q.d., week 2, 24 weeks results): -12.94 mg/L
CRP mean CFB mg/L (LOCF) (100 mg q.d., week 4, 12 weeks results): -13.18 mg/L
CRP mean CFB mg/L (LOCF) (100 mg q.d., week 4, 24 weeks results): -13.18 mg/L
CRP mean CFB mg/L (LOCF) (100 mg q.d., week 8, 24 weeks results): -12.48 mg/L
CRP mean CFB mg/L (LOCF) (100 mg q.d., week 12, 12 weeks results): -13.57 mg/L
CRP mean CFB mg/L (LOCF) (100 mg q.d., week 12, 24 weeks results): -13.57 mg/L
CRP mean CFB mg/L (LOCF) (100 mg q.d., week 16, 24 weeks results): -11.66 mg/L
CRP mean CFB mg/L (LOCF) (100 mg q.d., week 20, 24 weeks results): -14.50 mg/L
CRP mean CFB mg/L (LOCF) (100 mg q.d., week 24, 24 weeks results): -14.89 mg/L
CRP mean CFB mg/L (LOCF) (100 mg q.d., week 8, 12 weeks results): -12.48 mg/L
CRP mean CFB mg/L (LOCF) (200 mg q.d., week 1, 12 weeks results): -17.06 mg/L
CRP mean CFB mg/L (LOCF) (200 mg q.d., week 1, 24 weeks results): -17.06 mg/L
CRP mean CFB mg/L (LOCF) (200 mg q.d., week 2, 12 weeks results): -17.51 mg/L
CRP mean CFB mg/L (LOCF) (200 mg q.d., week 2, 24 weeks results): -17.51 mg/L
CRP mean CFB mg/L (LOCF) (200 mg q.d., week 4, 12 weeks results): -17.94 mg/L
CRP mean CFB mg/L (LOCF) (200 mg q.d., week 4, 24 weeks results): -17.94 mg/L
CRP mean CFB mg/L (LOCF) (200 mg q.d., week 8, 24 weeks results): -17.22 mg/L
CRP mean CFB mg/L (LOCF) (200 mg q.d., week 12, 12 weeks results): -17.24 mg/L
CRP mean CFB mg/L (LOCF) (200 mg q.d., week 12, 24 weeks results): -17.24 mg/L
CRP mean CFB mg/L (LOCF) (200 mg q.d., week 16, 24 weeks results): -20.38 mg/L
CRP mean CFB mg/L (LOCF) (200 mg q.d., week 20, 24 weeks results): -17.89 mg/L
CRP mean CFB mg/L (LOCF) (200 mg q.d., week 24, 24 weeks results): -15.57 mg/L
CRP mean CFB mg/L (LOCF) (200 mg q.d., week 8, 12 weeks results): -17.22 mg/L
CRP mean CFB mg/L (LOCF) (2 × 25 mg b.i.d., week 2, 12 weeks results): -10.06 mg/L
CRP mean CFB mg/L (LOCF) (2 × 25 mg b.i.d., week 2, 24 weeks results): -10.06 mg/L
CRP mean CFB mg/L (LOCF) (2 × 25 mg b.i.d., week 4, 12 weeks results): -7.72 mg/L
CRP mean CFB mg/L (LOCF) (2 × 25 mg b.i.d., week 4, 24 weeks results): -7.72 mg/L
CRP mean CFB mg/L (LOCF) (2 × 25 mg b.i.d., week 8, 12 weeks results): -10.94 mg/L
CRP mean CFB mg/L (LOCF) (2 × 25 mg b.i.d., week 8, 24 weeks results): -10.94 mg/L
CRP mean CFB mg/L (LOCF) (2 × 25 mg b.i.d., week 12, 12 weeks results): -10.26 mg/L
CRP mean CFB mg/L (LOCF) (2 × 25 mg b.i.d., week 12, 24 weeks results): -10.26 mg/L
CRP mean CFB mg/L (LOCF) (2 × 25 mg b.i.d., week 16, 24 weeks results): -12.55 mg/L
CRP mean CFB mg/L (LOCF) (2 × 25 mg b.i.d., week 20, 24 weeks results): -12.20 mg/L
CRP mean CFB mg/L (LOCF) (2 × 25 mg b.i.d., week 24, 24 weeks results): -11.68 mg/L
CRP mean CFB mg/L (LOCF) (2 × 25 mg b.i.d., Week 1, 12 weeks results): -8.47 mg/L
CRP mean CFB mg/L (LOCF) (2 × 25 mg b.i.d., Week 1, 24 weeks results): -8.47 mg/L
CRP mean CFB mg/L (LOCF) (2 × 50 mg b.i.d., week 2, 12 weeks results): -11.03 mg/L
CRP mean CFB mg/L (LOCF) (2 × 50 mg b.i.d., week 2, 24 weeks results): -11.03 mg/L
CRP mean CFB mg/L (LOCF) (2 × 50 mg b.i.d., week 4, 12 weeks results): -13.28 mg/L
CRP mean CFB mg/L (LOCF) (2 × 50 mg b.i.d., week 4, 24 weeks results): -13.28 mg/L
CRP mean CFB mg/L (LOCF) (2 × 50 mg b.i.d., week 8, 12 weeks results): -13.25 mg/L
CRP mean CFB mg/L (LOCF) (2 × 50 mg b.i.d., week 8, 24 weeks results): -13.25 mg/L
CRP mean CFB mg/L (LOCF) (2 × 50 mg b.i.d., week 12, 12 weeks results): -12.97 mg/L
CRP mean CFB mg/L (LOCF) (2 × 50 mg b.i.d., week 12, 24 weeks results): -12.97 mg/L
CRP mean CFB mg/L (LOCF) (2 × 50 mg b.i.d., week 16, 24 weeks results): -12.57 mg/L
CRP mean CFB mg/L (LOCF) (2 × 50 mg b.i.d., week 20, 24 weeks results): -13.16 mg/L
CRP mean CFB mg/L (LOCF) (2 × 50 mg b.i.d., week 24, 24 weeks results): -11.96 mg/L
CRP mean CFB mg/L (LOCF) (2 × 50 mg b.i.d., Week 1, 12 weeks results): -10.08 mg/L
CRP mean CFB mg/L (LOCF) (2 × 50 mg b.i.d., Week 1, 24 weeks results): -10.08 mg/L
CRP mean CFB mg/L (LOCF) (2 × 100 mg b.i.d., week 2, 12 weeks results): -19.69 mg/L
CRP mean CFB mg/L (LOCF) (2 × 100 mg b.i.d., week 2, 24 weeks results): -19.69 mg/L
CRP mean CFB mg/L (LOCF) (2 × 100 mg b.i.d., week 4, 12 weeks results): -20.64 mg/L
CRP mean CFB mg/L (LOCF) (2 × 100 mg b.i.d., week 4, 24 weeks results): -20.64 mg/L
CRP mean CFB mg/L (LOCF) (2 × 100 mg b.i.d., week 8, 12 weeks results): -21.32 mg/L
CRP mean CFB mg/L (LOCF) (2 × 100 mg b.i.d., week 8, 24 weeks results): -21.32 mg/L
CRP mean CFB mg/L (LOCF) (2 × 100 mg b.i.d., week 12, 12 weeks results): -20.54 mg/L
CRP mean CFB mg/L (LOCF) (2 × 100 mg b.i.d., week 12, 24 weeks results): -20.54 mg/L
CRP mean CFB mg/L (LOCF) (2 × 100 mg b.i.d., week 16, 24 weeks results): -21.34 mg/L
CRP mean CFB mg/L (LOCF) (2 × 100 mg b.i.d., week 20, 24 weeks results): -20.80 mg/L
CRP mean CFB mg/L (LOCF) (2 × 100 mg b.i.d., week 24, 24 weeks results): -20.82 mg/L
CRP mean CFB mg/L (LOCF) (2 × 100 mg b.i.d., Week 1, 12 weeks results): -17.39 mg/L
CRP mean CFB mg/L (LOCF) (2 × 100 mg b.i.d., Week 1, 24 weeks results): -17.39 mg/L
